Assay results from ChEMBL document CHEMBL1150259, “Identification of Plasmodium falciparum spermidine synthase active site binders through structure-based virtual screening” (J Med Chem, 2008).
The source made the active and inactive calls. The calls are words filed in the database; no cut-off is given here.

Each compound was assayed against T1, Spermidine synthase (Plasmodium falciparum) (UniProt Q9NFS5) (assay: Binding affinity to Plasmodium falciparum spermidine synthase by saturation transfer difference-NMR experiment relative to methylthioadenosine).
T1 sequence (whole entry): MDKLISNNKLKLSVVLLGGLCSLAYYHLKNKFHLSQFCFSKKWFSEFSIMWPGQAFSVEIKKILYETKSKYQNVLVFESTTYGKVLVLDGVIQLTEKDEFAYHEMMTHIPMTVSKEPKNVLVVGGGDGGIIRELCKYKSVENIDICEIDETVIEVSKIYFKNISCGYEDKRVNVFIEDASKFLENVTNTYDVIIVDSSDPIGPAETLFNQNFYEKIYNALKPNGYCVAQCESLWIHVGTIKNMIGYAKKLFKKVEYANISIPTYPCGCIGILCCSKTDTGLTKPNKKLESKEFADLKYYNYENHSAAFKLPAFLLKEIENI
With `NCCCCCc1nc2ccccc2[nH]1` the Activity was “Active”. In the case of `Nc1nnc(SCC(=O)Nc2cccc(Oc3ccccc3)c2)[nH]1`, the Activity is reported as “inactive”. For `NC(=O)CSc1nc2ncnc(N)c2[nH]1`, the Activity was “Active”. For `Nc1ncnc2c1ncn2[C@@H]1O[C@H](CO)[C@@H](O)[C@H]1O`, the Activity was “Active”.

These compounds were tested against T2, Spermidine synthase (Plasmodium falciparum, UniProt Q9NFS5) (assay: Inhibition of Plasmodium falciparum spermidine synthase).
T2 sequence (Q9NFS5 whole entry): T1 sequence (whole entry)
`CC1CCC(N)CC1` (centres undefined) gave an IC50 of 1.4 µM. Compound `CSC[C@H]1O[C@@H](n2cnc3c(N)ncnc32)[C@H](O)[C@@H]1O` [METHYLTHIOADENOSINE] has an IC50 of 159 µM.

These compounds were tested on Plasmodium falciparum (assay: Growth inhibition of Plasmodium falciparum).
Type: functional, organism-based
With `CC1CCC(N)CC1` (centres undefined) the IC50 was 34 µM.

Each compound was assayed against T1, Spermidine synthase (Plasmodium falciparum) (assay: Binding affinity to Plasmodium falciparum spermidine synthase by saturation transfer difference-NMR experiment).
With `Nc1nnc(SCC(=O)Nc2cccc(Oc3ccccc3)c2)[nH]1` the Activity was “Active”. With `N=c1c(N)c(O)ncn1CC(=O)c1ccc(I)cc1` the Activity was “inactive”. In the case of `O=C(CSc1nnc[nH]1)c1ccc2c(c1)OCCO2`, the Activity is reported as “inactive”. For `O=C(c1ccc2cn[nH]c2c1)N1CCN(c2ccccn2)CC1`, the Activity was “inactive”. For `O=C(CSc1nccc(=O)[nH]1)NCc1ccco1`, the Activity was “inactive”. With `Cn1c(SCC(=O)c2ccc3[nH]c(=O)oc3c2)nnc1-c1ccncc1` the Activity was “inactive”. For `CCCCc1nnc(NC(=O)CSc2nnc[nH]2)s1`, the Activity was “inactive”. With `NCCCCCCCNC(=O)Cc1ncc(C(F)(F)F)cc1Cl` the Activity was “inactive”. For `Nc1nnc(SCC(=O)NCc2ccc3c(c2)OCO3)[nH]1`, the Activity was “inactive”. With `Nc1nnc(SCC(=O)NCC2CN(Cc3ccccc3)CCO2)s1` (centres undefined) the Activity was “inactive”. In the case of `NC(=O)CSc1nc2ncnc(N)c2[nH]1`, the Activity is reported as “Active”. For `NCCCCCc1nnc(SCC(=O)Nc2cccc(Cl)c2)o1`, the Activity was “inactive”. With `O=C(CSc1nnc[nH]1)Nc1nccs1` the Activity was “inactive”. In the case of `O=C(c1ccc2[nH]cnc2c1)N1CCN(C/C=C/c2ccccc2)CC1`, the Activity is reported as “Active”. In the case of `O=C(CSc1cnn[nH]1)Nc1ncccn1`, the Activity is reported as “inactive”. In the case of `O=C1C=C(NCCc2c[nH]cn2)CC1`, the Activity is reported as “inactive”. With `NC(=O)c1ncn([C@@H]2O[C@H](CO)[C@@H](O)[C@H]2O)n1` the Activity was “inactive”. With `O=C(C1CCCCN1)N1CCN(Cc2cccnc2)CC1` (centres undefined) the Activity was “inactive”. `NCCSC1CC(=O)N(c2ccc(F)cc2)C1=O` (centres undefined) was tested, and the Activity was “inactive”. In the case of `Nc1nc(N)nc(SCC(=O)NCc2ccc(F)cc2)n1`, the Activity is reported as “inactive”. With `Nc1ncnc2c1ncn2[C@@H]1O[C@H](CO)[C@@H](O)[C@H]1O` the Activity was “Active”. For `O=C1NC(=S)NC(=O)C1=CNCCc1cnc[nH]1`, the Activity was “inactive”.
